Records with an inconclusive call do not appear.

Results on 20 compounds are retold here after PubChem BioAssay AID296 (DTP/NCI, 2004).

The subject of this test is MX-1 breast xenograft, nude mice, tumor weight T/C. In words: NCI In Vivo Anticancer Drug Screen. Data for tumor model Human Mammary Carcinoma MX-1 Xenograft (intrarenal inoculation) in NU/NU Swiss (nude) mice. The following applies: endpoint: mean tumor weight change, higher = larger tumour. How it is done: The antitumor activity of compounds was measured in mice bearing transplantable tumors. Survival or tumor size were measured and the results are expressed as the measurement made in the treated group (T) divided by the measurement made in the vehicle treated control group (C). The tumor model used in this assay is Human Mammary Carcinoma MX-1 Xenograft (intrarenal inoculation) in NU/NU Swiss (nude) mice

[1] abbreviates: dose: 300.0 mg/kg/injection, schedule: Q04DX003 (sc), vehicle: saline with Tween-80.
[2] abbreviates: dose: 600.0 mg/kg/injection, schedule: Q04DX003 (sc), vehicle: saline with Tween-80.
The mark [3] stands for this setting: dose: 1200.0 mg/kg/injection, schedule: Q04DX003 (sc), vehicle: saline with Tween-80.
[4] abbreviates: dose: 2400.0 mg/kg/injection, schedule: Q04DX003 (sc), vehicle: saline with Tween-80.
Setting [5] is: dose: 150.0 mg/kg/injection, schedule: Q04DX003 (sc), vehicle: saline with Tween-80.

Turning to `Oc1cc2c3c(c1)c1cc4c(cc1c[n+]3CC2)OCO4`, the T/C is 72 % of control (dose: 200.0 mg/kg/injection, schedule: Q04DX003 (sc), vehicle: water); 100 % of control (dose: 400.0 mg/kg/injection, schedule: Q04DX003 (sc), vehicle: water); 72 % of control (dose: 1600.0 mg/kg/injection, schedule: Q04DX003 (sc), vehicle: water).
For the compound `C=C1c2cccc(O)c2C(O)=C2C(=O)[C@]3(O)C(O)=C(C(N)=O)C(=O)[C@@H](N(C)C)[C@@H]3[C@@H](O)[C@H]12`, the T/C (dose: 75.0 mg/kg/injection, schedule: Q04DX003 (ip), vehicle: Klucel (hydroxypropylcellulose) (HPC)) was 89 % of control; the T/C (dose: 150.0 mg/kg/injection, schedule: Q04DX003 (ip), vehicle: Klucel (hydroxypropylcellulose) (HPC)) is 74 % of control; the T/C (dose: 300.0 mg/kg/injection, schedule: Q04DX003 (ip), vehicle: Klucel (hydroxypropylcellulose) (HPC)) was 58 % of control.
Regarding `COC(=O)Nc1ccc(Cc2ccc(NC(=O)OC)cc2)cc1`, the T/C was 87 % of control under setting [1], 119 % of control under setting [2], 65 % of control under setting [3] and 48 % of control under setting [4].
For the compound `CCN(CC)CC[n+]1ccc2c(C)c3[nH]c4ccc(O)cc4c3c(C)c2c1`, the T/C runs as follows: (dose: 12.5 mg/kg/injection, schedule: Q04DX003 (sc), vehicle: suspension in saline) 82 % of control; (dose: 25.0 mg/kg/injection, schedule: Q04DX003 (sc), vehicle: suspension in saline) 77 % of control.
For `COc1cccc(C2NC(=O)c3c(n[nH]c3N)S2)c1O` (stereo unspecified), the T/C is 50 % of control under setting [5], 62 % of control under setting [1], 77 % of control under setting [2] and 117 % of control under setting [3].
Take `CCC[P+](c1ccccc1)(c1ccccc1)c1ccccc1`: the T/C (dose: 18.75 mg/kg/injection, schedule: Q04DX003 (sc), vehicle: saline with Tween-80) is 100 % of control; the T/C (dose: 37.5 mg/kg/injection, schedule: Q04DX003 (sc), vehicle: saline with Tween-80) was 73 % of control; the T/C (dose: 75.0 mg/kg/injection, schedule: Q04DX003 (sc), vehicle: saline with Tween-80) is 62 % of control; the T/C under setting [5] is 54 % of control.
Consider `COc1ccc(CC2C(=O)NC(C)C(=O)N(C)C3C(=O)N(C)C(Cc4ccc(O)c(c4)Oc4ccc(cc4)C3O)C(=O)NC(C)C(=O)NC(C)C(=O)N2C)cc1` (stereo unspecified), for which the T/C was 78 % of control (dose: 0.5 mg/kg/injection, schedule: Q01DX010 (sc), vehicle: saline with Tween-80); 51 % of control (dose: 1.0 mg/kg/injection, schedule: Q01DX010 (sc), vehicle: saline with Tween-80); 34 % of control (dose: 2.0 mg/kg/injection, schedule: Q01DX010 (sc), vehicle: saline with Tween-80).
Regarding `O=C1c2ccccc2C(=O)c2c3c(cc(NCCNCCO)c21)N(CCO)CCN3`, the T/C (dose: 12.5 mg/kg/injection, schedule: Q04DX003 (sc), vehicle: DMSO) is 95 % of control; the T/C (dose: 25.0 mg/kg/injection, schedule: Q04DX003 (sc), vehicle: DMSO) is 101 % of control; the T/C (dose: 50.0 mg/kg/injection, schedule: Q04DX003 (sc), vehicle: DMSO) is 77 % of control; the T/C (dose: 100.0 mg/kg/injection, schedule: Q04DX003 (sc), vehicle: DMSO) was 111 % of control; the T/C (dose: 200.0 mg/kg/injection, schedule: Q04DX003 (sc), vehicle: DMSO) is 151 % of control.
Take `CN(C)N=Nc1ccc(C(=O)O)cc1`: the T/C reads like this: (dose: 100.0 mg/kg/injection, schedule: Q04DX003 (ip), vehicle: saline) 55 % of control; (dose: 200.0 mg/kg/injection, schedule: Q04DX003 (ip), vehicle: saline) 16 % of control; (dose: 400.0 mg/kg/injection, schedule: Q04DX003 (ip), vehicle: saline) -31 % of control.
As to `CN(C)C(=O)SC1=C(c2c(Cl)cccc2Cl)C(=O)c2ccccc21`, the T/C (dose: 300.0 mg/kg/injection, schedule: Q04DX003 (sc), vehicle: Klucel (hydroxypropylcellulose) (HPC)) is 76 % of control; the T/C (dose: 600.0 mg/kg/injection, schedule: Q04DX003 (sc), vehicle: Klucel (hydroxypropylcellulose) (HPC)) is 65 % of control; the T/C (dose: 1200.0 mg/kg/injection, schedule: Q04DX003 (sc), vehicle: Klucel (hydroxypropylcellulose) (HPC)) is 57 % of control; the T/C (dose: 2400.0 mg/kg/injection, schedule: Q04DX003 (sc), vehicle: Klucel (hydroxypropylcellulose) (HPC)) is 67 % of control.
As to `CC(=O)OCc1cc(=O)n(C)c2c3c4c(cc12)c(C)cc(=O)n4CO3`, the T/C reads like this: (dose: 50.0 mg/kg/injection, schedule: Q01DX010 (sc), vehicle: Klucel (hydroxypropylcellulose) (HPC)) 120 % of control; (dose: 100.0 mg/kg/injection, schedule: Q01DX010 (sc), vehicle: Klucel (hydroxypropylcellulose) (HPC)) 92 % of control.
As to `C=CCc1cn(C2CC(O)C(CO)O2)c(=O)[nH]c1=O` (stereo unspecified), the T/C is 121 % of control (dose: 300.0 mg/kg/injection, schedule: Q04DX003 (sc), vehicle: saline); 114 % of control (dose: 600.0 mg/kg/injection, schedule: Q04DX003 (sc), vehicle: saline); 93 % of control (dose: 1200.0 mg/kg/injection, schedule: Q04DX003 (sc), vehicle: saline); 97 % of control (dose: 2400.0 mg/kg/injection, schedule: Q04DX003 (sc), vehicle: saline).
As to `COc1ccc2c(c1)CCC(c1ccccc1)=C2c1ccc(OCCN2CCCC2)cc1`, the T/C is 79 % of control (dose: 25.0 mg/kg/injection, schedule: Q04DX003 (sc), vehicle: Klucel (hydroxypropylcellulose) (HPC)); 72 % of control (dose: 50.0 mg/kg/injection, schedule: Q04DX003 (sc), vehicle: Klucel (hydroxypropylcellulose) (HPC)); 70 % of control (dose: 100.0 mg/kg/injection, schedule: Q04DX003 (sc), vehicle: Klucel (hydroxypropylcellulose) (HPC)); 67 % of control (dose: 200.0 mg/kg/injection, schedule: Q04DX003 (sc), vehicle: Klucel (hydroxypropylcellulose) (HPC)).
With `BrC1CC(Br)c2c1c1c(c3c2C(Br)CC3Br)C(Br)CC1Br` (stereo unspecified), the T/C (dose: 300.0 mg/kg/injection, schedule: Q04DX003 (sc), vehicle: water) is 92 % of control; the T/C (dose: 600.0 mg/kg/injection, schedule: Q04DX003 (sc), vehicle: water) is 104 % of control; the T/C (dose: 1200.0 mg/kg/injection, schedule: Q04DX003 (sc), vehicle: water) was 120 % of control; the T/C (dose: 2400.0 mg/kg/injection, schedule: Q04DX003 (sc), vehicle: water) was 50 % of control.
Regarding `CC1(CO)C(O)CCC2(C)C1CCC1CC3CC12CCC3(O)CO` (stereo unspecified), the T/C (dose: 50.0 mg/kg/injection, schedule: Q01DX010 (sc), vehicle: saline with Tween-80) was 56 % of control and the T/C (dose: 100.0 mg/kg/injection, schedule: Q01DX010 (sc), vehicle: saline with Tween-80) was 38 % of control.
As for `COC12[C@@H]3N[C@@H]3CN1C1=C(C(=O)C(NCCSSCCNC3=C(C)C(=O)C4=C(C3=O)C(COC(N)=O)[C@]3(OC)C5N[C@@H]5CN43)=C(C)C1=O)[C@@H]2COC(N)=O` (stereo partly specified), the T/C is, setting by setting: (dose: 3.12 mg/kg/injection, schedule: Q04DX003 (ip), vehicle: DMSO) 17 % of control; (dose: 12.5 mg/kg/injection, schedule: Q04DX003 (ip), vehicle: DMSO) 14 % of control; (dose: 25.0 mg/kg/injection, schedule: Q04DX003 (ip), vehicle: DMSO) -1 % of control.
`COc1ccc(C[C@H](N)C(=O)NC2C(CO)OC(n3cnc4c(N(C)C)ncnc43)C2O)cc1` (stereo partly specified): the T/C reads like this: (dose: 100.0 mg/kg/injection, schedule: Q04DX003 (sc), vehicle: saline) 102 % of control; (dose: 200.0 mg/kg/injection, schedule: Q04DX003 (sc), vehicle: saline) 99 % of control.
Regarding `CSc1ccc2c(c1)C(N1CCN(C)CC1)Cc1ccccc1S2` (stereo unspecified), the T/C (dose: 12.5 mg/kg/injection, schedule: Q04DX003 (sc), vehicle: other) was 50 % of control; the T/C (dose: 25.0 mg/kg/injection, schedule: Q04DX003 (sc), vehicle: other) was 23 % of control; the T/C (dose: 100.0 mg/kg/injection, schedule: Q04DX003 (sc), vehicle: other) is 42 % of control.
For the compound `NC(=O)c1ncn(C2OC(CO)C(O)C2O)n1` (stereo unspecified), the T/C by setting is: (dose: 225.0 mg/kg/injection, schedule: Q04DX003 (sc), vehicle: saline) 108 % of control; (dose: 450.0 mg/kg/injection, schedule: Q04DX003 (sc), vehicle: saline) 61 % of control; (dose: 900.0 mg/kg/injection, schedule: Q04DX003 (sc), vehicle: saline) 45 % of control.
Consider `[I][Hg][CH2]C1COC([CH2][Hg][I])CO1` (stereo unspecified), for which the T/C under setting [1] was 86 % of control, the T/C under setting [2] was 77 % of control, the T/C under setting [3] was 115 % of control and the T/C under setting [4] was 82 % of control.
